From paper PMC5570423, “Structural characterisation of TNRC6A nuclear localisation signal in complex with importin-alpha” (PLoS ONE, 2017)
Values belong to the substance of their own block, whether it stands above or below them. Where no end group is shown, it is not given here.

Legend:
mImpα1ΔIBB = assay: In vitro GST pull-down with mouse Impα1ΔIBB; assay type: binding; details: 100 μg GST-cNLS, 250 μg Impα, glutathione resin, 4°C 1 hr, 20 mM Tris pH7.5, […] NaCl, 1 mM DTT; SDS-PAGE
Experimental: (§1) Glutathione resin (Pierce) was incubated with 100 μg of purified GST-cNLS or GST, and 250 μg of ImpA or 500 μg of ImpB at 4°C for 1 hr. Unbound protein was removed by washing beads 5 times in 500 μL binding buffer, and the bound proteins were eluted in binding buffer supplemented with 10 mM glutathione. The samples were analysed using SDS-PAGE, input lanes correspond to 1% of incubated samples and pull-down lanes correspond to 8% of eluted protein.

HeLa cells = details: region comprising residues 1178–1187 of the human protein; cited from earlier work
Text: hTNRC6A cNLS (^1179[…]^1187; numbering according to isoform 1 and corresponds to ^926[…]^934 in isoform 2; Fig 1A) is located between the Ago-binding and UBA regions of the protein [35]. This motif is strictly conserved between mouse and humans (Fig 1B), is present in bats and hedgehogs, but appears to be absent in fish and insects.

human Impβ = assay: In vitro GST pull-down with human Impβ; assay type: binding; details: GST-NLS with His-tagged human Impβ (500 μg), 4°C 1 hr; S1 Fig
Experimental: as §1
(§2) Pull-downs with GST-NLS or GST-mImpα1 full-length with His-tagged mouse and human Impβ. GST and mImpα1 served as the negative and positive controls, respectively. (EPS) Click here for additional data file.

mouse Impβ = assay: In vitro GST pull-down with mouse Impβ; assay type: binding; details: GST-NLS with His-tagged mouse Impβ (500 μg), 4°C 1 hr; S1 Fig
Experimental: as §1, §2

hImpα1ΔIBB = assay: In vitro GST pull-down with human Impα1ΔIBB; assay type: binding; details: 100 μg GST-cNLS, 250 μg Impα, glutathione resin, 4°C 1 hr; SDS-PAGE
Experimental: as §1

[1] = tested on: nuclear accumulation of a fluorescent reporter; details: template SSGA####AG, Lys/Arg combinations predicted to bind at P2-P5; cited from earlier work
Experimental: A detailed mutational analysis of a template monopartite NLS sequence has been reported, where all possible 16 Lys and/or Arg combinations (SSGA####AG, where # represents either Lys or Arg) predicted to bind at the P2-P5 pockets, were tested for their nuclear import activity.

binding to mImpα1ΔIBB in GST pull-down (mImpα1ΔIBB): completely abolished binding
Substance: P2 mutant: GST-TNRC6A cNLS with mTNRC6A Lys1167 mutated to Ala (SGKARRRER; also: fused to GST (GST not in chain), ends not given here)

Substance: SGKKRRRER [hTNRC6A cNLS, human TNRC6A cNLS, residues 1179–1187 of isoform 1; strictly conserved with mouse; tested earlier on a GFP reporter]
nuclear localisation of a GFP reporter (HeLa cells): sufficient to induce the nuclear localisation

binding to mImpα1ΔIBB in GST pull-down (mImpα1ΔIBB): binding was disrupted
Substance: NLS mutant: GST-TNRC6A cNLS with the four arginine residues substituted to Ala, as previously described (SGKKAAAEA; also: fused to GST (GST not in chain), ends not given here)

Substance: SGKKRRRER [GST-TNRC6A cNLS, GST fusion of TNRC6A nuclear localisation signal, residues 1164–1172 of mouse TNRC6A (1179–1187 of human)]
pull-down of human Impβ (human Impβ): not sufficient to pull-down
pull-down of mouse Impβ (mouse Impβ): not sufficient to pull-down
binding to hImpα1ΔIBB in GST pull-down (hImpα1ΔIBB): sufficient to interact
binding to mImpα1ΔIBB in GST pull-down (mImpα1ΔIBB): sufficient to interact

Substance: SSGAKRRRAG
nuclear accumulation of a fluorescent reporter [1]: Complete nuclear accumulation
